The test system of the test is Human dermal fibroblasts. As to the kind of experiment: Hyaluronic Acid (HA) Secretion (Assay 4, ELISA). The class given is cell-based. The conditions noted are these: 20 ng/ml (positive control), 48 hours post-treatment. The protocol: Human dermal fibroblasts were maintained in flask in growth medium consisting of DMEM plus 10% fetal bovine serum, 50 units/ml penicillin and 50 μg/ml streptomycin. Cells were seeded at 10,000 cells per well in a 96 well plate. After 24 hours incubation, cells were treated with test articles dissolved in DMSO or DMSO without extracts (as control) prepared in DMEM+2% FBS. Culture media was collected at 48 hours post-treatment, and measured for HA (Hyaluronic acid) secretion using Hyaluronan ELISA kit (Echelon, cat. #K-1200) following the manufacturer protocol. To assess activity, the colorimetric chance was measured at 405 nm and the results expressed as a fold change over untreated controls.

For the substance TGF-b, the “HA secretion Fold Change” value was 2.54 fold.

These data come from patent US20150024072A1, “METHODS OF TREATING A SKIN CONDITION WITH MALVA NEGLECTA” (Johnson & Johnson Consumer Companies, Inc., priority 2013, published 2015).
